Measured values taken from publication PMC5025054 (PLoS ONE, 2016).
Like-named read-outs stand apart in the source and are kept apart here. One block for each compound: values may come before it.

How the values were obtained:
SH-SY5Y cells = assay: Neuroprotection in cellular L-BMAA model (MTT cell viability); format: cell-based; conditions: L-BMAA 10 mM, inhibitors 10 μM, 24 h
Procedure: SH-SY5Y cells on a 96 well plate ere incubated with L-BMAA (10 mM) with or without inhibitors (10 μM). A control experiment was set at the same time without L-BMAA or inhibitors. After 24 h a MTT was performed to determine cell viability using known procedures in the literature. Experiment was performed in triplicate.
Mechanistically and structurally diverse GSK-3 inhibitors were tested in a cellular model of L-BMAA to study whether GSK-3 inhibition was implicated in neuroprotection at L-BMAA damage, using a forward chemical genetic approach. […] Cells were incubated with L-BMAA together with or without inhibitors for 24 h and cell viability was determined.

Human recombinant GSK-3β [1] = molecular target: T1, Human recombinant GSK-3β (Homo sapiens, UniProt P49841); conditions: cited from earlier work
T1 construct: purchased Millipore (Millipore Iberica S.A.U.)
T1 sequence (P49841 whole entry): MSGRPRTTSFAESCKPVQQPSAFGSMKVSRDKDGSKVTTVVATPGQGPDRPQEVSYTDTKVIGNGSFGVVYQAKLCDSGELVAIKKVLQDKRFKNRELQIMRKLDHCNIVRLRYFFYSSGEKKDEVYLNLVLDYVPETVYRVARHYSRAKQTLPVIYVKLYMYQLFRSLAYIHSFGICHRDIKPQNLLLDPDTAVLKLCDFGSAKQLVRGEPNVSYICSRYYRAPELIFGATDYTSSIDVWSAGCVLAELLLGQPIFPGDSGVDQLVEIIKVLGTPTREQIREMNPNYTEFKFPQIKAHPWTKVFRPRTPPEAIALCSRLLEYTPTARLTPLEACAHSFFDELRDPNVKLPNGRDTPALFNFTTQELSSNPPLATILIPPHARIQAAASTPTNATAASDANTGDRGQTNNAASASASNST

[2] = Weight progression of treated rats; format: in vivo, Rattus norvegicus; conditions: alone or co-administered, VP2.51 2.5 mg/Kg i.p. 15 days, L-BMAA 300 mg/kg i.p. 5 days, 100 days
Description: After this time the animals were sacrificed.

LC3-II and P-mTOR = assay: Analysis of LC3-II and P-mTOR by western-blot (autophagy) in motor cortex and lumbar spinal cord; format: in vivo, Rattus norvegicus
Procedure: The entire brain and the lumbar spinal cord were rapidly removed and stored at -80°C.
To analyse LC3-II and P-mTOR by western-blot, 100 mg of motor cortex and lumbar spinal cord of each animal were homogenized in a RIPA buffer: 50 mM Tris–HCl pH 7.4, 50 mM NaCl, Nonidet P-40 1%, 1 mM EDTA, 1 mM PMSF, 1 mg/mL aprotinin, […] leupeptin, 1 mg/mL pepstatin, at a rate of […] of tissue. The mixture was sonicated for 2 min with 2 s pulses of sonication and 2 s off at amplitude of 40%. Once the samples were homogenized, the evaluation and protein electrophoresis was performed. The protocol was adapted from Zhang et al as described in Muñoz-Sáez et al.
Before the electrophoresis, the protein concentrations of all samples were determined by Bradford assay (Sigma–Aldrich Inc., St. Louis, MO, USA; Bradford, 1976).
Electrophoresis for protein separation was performed by SDS-PAGE. In all cases, the concentrating gel contained 6% polyacrylamide. Regarding LC3-II, the percentage of polyacrylamide was 12% for the separating gel and for P-mTOR an 8% polyacrylamide separating gel was used. Subsequently, proteins from the gels were transferred to a nitrocellulose membrane (AmershamTM HybondTM–ECL) in a wet system at 10 V o/n and 4°C. Membranes were incubated with following primary antibodies: a rabbit polyclonal anti-tubulin β-III (Novus Biologicals, Littleton, CO, USA), a rabbit polyclonal anti-LC3-II (Novus Biologicals, Littleton, CO, USA) and rabbit polyclonal anti-mTOR (Phospho-Ser2448) (Novus Biologicals, Littleton, CO, USA). As a secondary antibody, we applied Donkey anti-rabbit IgG-Fc Horseradish Peroxidase (HRP) (Bethyl Laboratories, Montgomery, TX, USA). All the antibodies were used according to the manufacturers’ specifications. Proteins were detected by enhanced chemiluminescence. Digital images were acquired using a Fujifilm Intelligent Darkbox II (Fuji Systems USA, Stamford, CT) and the image processing for quantification was conducted with free image processing software Image J.

male rats, Wistar strain = assay: Neurological evaluation in L-BMAA motor neuron disease model
Procedure: Assays were carried out using male rats of Rattus norvegicus, albino variety, Wistar strain, that were supplied by Harlan Interfauna Ibérica S.A. (Barcelona, Spain). Animals were kept at constant temperature (21 ± 1°C) on a reversed light/dark cycle with diets and water ad libitum (A04 commercial rodent diet, Panlab, Barcelona, Spain). […] Animal’s health was monitored by weight control. […] Animals were sacrificed at the established time point under general anaesthesia with isoflurane (ISOFLO®, Abbott Laboratories, Abbott Park, IL, USA).
At weaning time (postnatal day 21) animals, with a weight between 45 and 55 g, were intraperitoneally (i.p.) injected with 300 mg/kg of L-BMAA (L-BMAA hydrochloride, Sigma-Aldrich, Ref. B107), during 5 consecutive days. The injected solution was composed by 50 mg of L-BMAA dissolved in 500 μl of PBS (0.1 mg / μl).
VP2.51 was dissolved in a stock solution of DMSO (dimethyl sulfoxide, Sigma) at 100 mg/mL. This stock was used to prepare a final solution of 1 mg/mL in PBS with 5% DMSO and 5% Tween® 80 (Sigma). Rats were injected i.p. 2.5 mg/Kg beginning at two different times: on the first day after treatment with L-BMAA (PT1) and on day post-treatment 30 (PT30). Injection treatment was performed for 15 consecutive days.
In summary, 6 different groups of 12 animals each were used: Control (only PBS injected), L-BMAA, L-BMAA+VP2.51 PT1, VP2.51 PT1, L-BMAA+VP2.51 PT30, VP2.51 PT30. Weight monitoring was performed every day during 100 days. After this time the animals were sacrificed.
The neurological tests were carried out blindly as described by de Munck et al [13], once a week during 100 days. Briefly, the neurological assess was carried out with three different tests: ambulation, tail suspension test and strength test. […] In the tail suspension test, the rat was suspended by the tail at 10 cm over the surface. The ability to keep the hind limbs in the normal neutral position adopted by rodents in such situation, i.e., describing a “T” was evaluated, together with the stiffness of the limbs and the inter-limb coordination during kicking. The strength test and was carried out setting down the rats on a flat surface, both forelegs and hind limbs on it, while pulling the tail softly to the opposite direction of animal usual move course. The ability the rats had to drag and offer resistance, assessing their faculty to kept hind limbs under the body without spreading their legs away from it was observed. The neurological evaluation was established in a scale comprised between 0 and 10, where 0 is the evaluation given to animals which are not symptomatic, control animals, and 10 belongs to a state of total functional loss of the hindlimbs and postural control.

[3] = In vitro parallel artificial membrane permeability assay (PAMPA-BBB); format: in vitro ADME, porcine; conditions: for Pe: PBS:DMSO (95:5), 4 h at 25°C, mean ± SD of 3 independent experiments
Procedure: Prediction of the brain penetration was evaluated using a parallel artificial membrane permeability assay (PAMPA). Ten commercial drugs, phosphate buffer saline solution at pH 7.4 (PBS), DMSO and dodecane were purchased from Sigma, Across organics, Aldrich and Fluka. […] Filter PDVF membrane units (diameter 30 mm, pore size 0.45 μm) from Symta were used to filter the samples. A 96-well plate UV reader (Thermoscientific, Multiskan spectrum) was used for the UV measurements. Test compounds were dissolved in DMSO (250 μL). 25 μL of this compound stock solution was taken and 225 μL of DMSO and 4750 μL of PBS pH 7.4 buffer were added to reach 5% of DMSO concentration in the experiment. These solutions were filtered. The acceptor 96-well microplate was filled with 180 μL of PBS:DMSO (95:5). The donor 96-well plate was coated with 4 μL of porcine brain lipid in dodecane (20 mg mL^-1) and after 5 minutes, 180 μL of each compound solution was added. […] Then the donor plate was carefully put on the acceptor plate to form a “sandwich”, which was left undisturbed for 4 h at 25°C. During this time the compounds diffused from the donor plate through the brain lipid membrane into the acceptor plate. After incubation, the donor plate was removed. The concentration of VP2.51 and commercial drugs in the acceptor and the donor wells was determined by UV plate reader. Every sample was analyzed at three to five wavelengths, in 3 wells and in three independent runs. […] Validation was made comparing the reported permeabilities values of commercial drugs with the experimental data obtained employing this methodology.
Finally, the ability to cross the blood-brain barrier (BBB) was determined. […] VP2.51 permeability through the BBB was evaluated by a parallel artificial membrane permeability assay (PAMPA) using porcine brain membrane lipid and ten commercial drugs following the methodology described by Di et al.

Human recombinant GSK-3β [4] = molecular target: T1, Human recombinant GSK-3β; assay: Inhibition of GSK-3 (Kinase-Glo luminescent assay; ADP-Glo for kinetics); format: biochemical
Procedure: Human recombinant GSK-3β was purchased from Millipore (Millipore Iberica S.A.U.). The prephosphorylated polypeptide substrate was purchased from Millipore (Millipore Iberica S.A.U.). Kinase-Glo Luminescent Kinase Assay was obtained from Promega (Promega Biotech Ibérica, SL). ATP and all other reagents were from Sigma-Aldrich (St. Louis, MO). Assay buffer contained 50 mM HEPES (pH 7.5), 1 mM EDTA, 1 mM EGTA, and 15 mM magnesium acetate.
The method of Baki et al was followed to analyse the inhibition of GSK-3β. Kinase-Glo assays were performed in assay buffer using black 96-well plates. […] After 30 min incubation at 30°C the enzymatic reaction was stopped with 40 μl of Kinase-Glo reagent. Glo-type luminescence was recorded after 10 min using a FLUOstar Optima (BMG Labtechnologies GmbH, Offenburg, Germany) multimode reader. The activity is proportional to the difference of the total and consumed ATP. The inhibitory activities were calculated on the basis of maximal activities measured in the absence of inhibitor. […] To investigate the inhibitory mechanism of VP2.51 on GSK-3β, a kinetic study varying both ATP (from 1 to 50 μM) and VP.251 (from 0.5 to 1 μM) concentrations were performed using the ADP-Glo Kinase Assay.
To study the type of enzymatic inhibition for the compounds, measurements after several times of incubation of the enzyme with the inhibitor VP2.51 were performed.

casein kinase-1δ (CK-1δ) = casein kinase-1δ (CK-1δ) (Homo sapiens, UniProt P48730); assay: CK-1δ inhibition following a described protocol; format: biochemical
Chain of casein kinase-1δ (CK-1δ) (P48730 whole entry): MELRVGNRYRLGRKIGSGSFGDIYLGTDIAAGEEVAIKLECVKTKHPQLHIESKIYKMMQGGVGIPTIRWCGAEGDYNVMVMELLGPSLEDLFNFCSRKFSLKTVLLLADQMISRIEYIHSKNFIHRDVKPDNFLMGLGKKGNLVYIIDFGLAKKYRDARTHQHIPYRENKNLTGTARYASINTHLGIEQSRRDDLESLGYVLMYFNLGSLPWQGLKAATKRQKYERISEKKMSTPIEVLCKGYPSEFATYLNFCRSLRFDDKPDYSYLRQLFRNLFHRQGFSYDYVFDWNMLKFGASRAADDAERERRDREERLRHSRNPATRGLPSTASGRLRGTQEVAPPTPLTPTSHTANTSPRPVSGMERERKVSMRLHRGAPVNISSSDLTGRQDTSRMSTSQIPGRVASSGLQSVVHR

[5] = system: panel of fifty different human kinases; conditions: fixed concentration 10 μM
Procedure: Fig 1 Biological activity of VP2.51 on GSK-3 and other protein kinases. […] B) Kinetic GSK-3 inhibition data determined for VP2.51. ATP concentrations in the reaction mixture varied from 1 to 50 μM. […] Each point is the mean of two different experiments, each one analyzed in duplicate. C) Kinase profiling of VP2.51 on human recombinant kinases. The percentage (%) of kinase activity after the treatment with a fixed concentration (10 μM) of the compound is shown.

cytochromes P450 family = system: cytochromes P450 family; design: method as in earlier work; conditions: cited from earlier work
multiple sclerosis model = system: multiple sclerosis model; design: method as in PMID 23606540; conditions: cited from earlier work

Structure (SMILES): CC(=O)C1=C(c2cn(C)c3ccccc23)C(=O)NC1=O [INH-38]
Cell viability, protection from L-BMAA damage (SH-SY5Y cells): protect cells from L-BMAA damage | Kind of GSK-3 inhibition (Human recombinant GSK-3β [1]): ATP-competitive inhibitors

Structure (SMILES): c1ccc(-c2n/c(=N/CCN3CCOCC3)sn2-c2ccccc2)cc1 [ITDZ 55]
Cell viability, protection from L-BMAA damage (SH-SY5Y cells): protect cells from L-BMAA damage | Kind of GSK-3 inhibition (Human recombinant GSK-3β [1]): substrate competitive inhibitor

Structure (SMILES): CNC[C@H](N)C(=O)O [L-BMAA, β-N-methylamino-L-alanine, reference compound]
Effect on weight progression / physical development [2]: do not affect physical development | P-mTOR levels in lumbar spinal cord vs control animals (LC3-II and P-mTOR; L-BMAA treated rats, t = 3.257, p = 0.031): significantly higher | P-mTOR levels in motor cortex vs control animals (LC3-II and P-mTOR; L-BMAA treated rats, t = 5.889, p = 0.0042): significantly higher | LC3-II levels in motor cortex vs control animals (LC3-II and P-mTOR; L-BMAA treated rats, t = 5.969, p = 0.027): significantly higher | LC3-II levels in lumbar spinal cord vs control animals (LC3-II and P-mTOR; L-BMAA treated rats, t = 46.85, p = 0.0005): significantly higher | neurological evaluation score (scale 0-10) (male rats, Wistar strain; rats treated with L-BMAA only, 300 mg/kg i.p. 5 consecutive days): 7 points

Pe ([3]; PAMPA-BBB): 1.7 ± 0.3 10^-6 cm s^-1
Structure (SMILES): CN1C(C(=O)Nc2ccccn2)=C(O)c2ccccc2S1(=O)=O [Piroxicam, reference compound]

Pe ([3]; PAMPA-BBB): 8.9 ± 1.0 10^-6 cm s^-1
Structure (SMILES): CN(C)CCCN1c2ccccc2Sc2ccccc21 [Promazine, reference compound]

Structure (SMILES): CCCCCCCCCCCC(=O)NNC(=O)c1c(O)c2ccccc2n(CC)c1=O [VP0.7]
Cell viability, protection from L-BMAA damage (SH-SY5Y cells): protect cells from L-BMAA damage | Kind of GSK-3 inhibition (Human recombinant GSK-3β [1]; does not compete with ATP nor substrate): allosteric inhibitor

Structure (SMILES): COc1ccc(CNC(=O)Nc2nc(C)c(C(C)=O)s2)cc1 [VP2.51, 1-(5-Acetyl-4-methyl-1,3-thiazol-2-yl)-3-(4-methoxybenzyl)urea]
Inhibitory mechanism (kinetic experiments) (Human recombinant GSK-3β [4]; ATP 1 to 50 μM, GS-2 12.5 μM, ADP-Glo): competes in vitro with ATP | Type of enzymatic inhibition (time dependent experiments) (Human recombinant GSK-3β [4]; VP2.51 at 1 and 2 μM, several times of incubation with enzyme): reversible inhibition | IC50 (Human recombinant GSK-3β [4]; human recombinant enzyme, 1 μM ATP, 30 min, 30°C, read-out: GSK-3 inhibitory activity in vitro IC50): 0.62 ± 0.15 µM | IC50 (casein kinase-1δ (CK-1δ)): 7.28 ± 0.87 µM | CK-1δ IC50 relative to GSK-3 IC50 (casein kinase-1δ (CK-1δ); fold over GSK-3 inhibition): tenfold | Kinase selectivity profile [5]: targeting only both isoforms of GSK-3, α and β, and with less potency, casein kinase-1δ (CK-1δ) | BBB prediction ([3]; PAMPA-BBB): CNS + (CNS + when they present a permeability > 4.15 x 10^−6 cm s^-1) | Pe ([3]; PAMPA-BBB): 7.6 ± 0.4 10^-6 cm s^-1 | Papp at 4 h ([3]; pig, pH 7.4, PAMPA, porcine brain membrane lipid, read-out: effective permeability): 7.6 ± 0.4 ×10⁻⁶ cm/s | Cell viability, protection from L-BMAA damage (SH-SY5Y cells): protect cells from L-BMAA damage | Effect on weight progression / physical development [2]: do not affect physical development | P-mTOR level in lumbar spinal cord vs L-BMAA treated animals (LC3-II and P-mTOR; L-BMAA+VP2.51 at PT1): lower non-significant | LC3-II levels in motor cortex vs L-BMAA treated animals (LC3-II and P-mTOR; L-BMAA+VP2.51 at PT1, t = 3.547, p <0.05): significantly lower | LC3-II levels in lumbar spinal cord vs L-BMAA treated animals (LC3-II and P-mTOR; L-BMAA+VP2.51 at PT1, t = 5.083, p <0.01): lower | P-mTOR levels in motor cortex vs L-BMAA treated animals (LC3-II and P-mTOR; L-BMAA+VP2.51 at PT1, t = 7.223, p <0.001): significantly lower | Inhibition of cytochromes P450 family (cytochromes P450 family): weak or partial inhibitor | Efficacy in multiple sclerosis model (multiple sclerosis model): effective | Evolution of neurological evaluation vs L-BMAA only group (male rats, Wistar strain; L-BMAA + VP2.51 PT1 (2.5 mg/Kg i.p. 15 days from day 1 after L-BMAA), F = 89.34, p <0.0001): markedly improved | Evolution of neurological evaluation vs L-BMAA only group (male rats, Wistar strain; L-BMAA + VP2.51 PT30 (2.5 mg/Kg i.p. 15 days from day 30 post-treatment)): did not show significant differences | neurological evaluation score (scale 0-10) (male rats, Wistar strain; rats treated exclusively with VP2.51 (PT1 and PT30), 2.5 mg/Kg i.p. 15 days): zero | Neurological pathologies or observable toxicities (male rats, Wistar strain; rats, VP2.51 2.5 mg/Kg i.p. 15 days): does not promote either neurological pathologies or observable toxicities
